Results taken from patent US9675642B2, “Engineered dendritic cells and uses for the treatment of cancer” (Intrexon Corporation, priority 2007, dated 2017).

How the values were obtained:
[1] = tested on: DC infected with rAd.RheoIL12 (DC.RheoIL12); test: IL-12p70 secretion by adenovirus-infected murine BM-derived DC (ELISA); assay type: cell-based, mouse
Procedure: DCs were generated from murine bone marrow as previously described (Tatsumi et al., 2003). Briefly, wild-type or EGFP Tg mouse BM was cultured in CM supplemented with 1000 units/ml recombinant murine granulocyte/macrophage colony-stimulating factor and recombinant mIL-4 (Peprotech, Rocky Hill, N.J.) at 37° C. in a humidified, 5% CO2 incubator for 7 days. CD11c^+ DC were then isolated using specific MACSTM beads, per the manufacturer's protocol (Miltenyi Biotec, Auburn, Calif.). CD11c^+ DC produced in this manner were >95% pure based on morphology and co-expression of the CD11b, CD40, CD80, and class I and class II MHC antigens.
Day 7 cultured DC were untreated, were infected with recombinant Ads encoding murine IL-12p70 driven off a constitutive (rAd.cIL12) or inducible (rAd.RheoIL12) promoter, or were infected with mock, control vector rAdψ5, over a range of MOIs. At various time points after this (0-48 h), DC were then cultured in the absence or presence of an activating ligand (10-200 μg/ml) for an additional 24 h prior to analysis of IL-12p70 secretion using a specific ELISA kit (BDPharMingen, San Diego, Calif.; lower level of detection=62.5 pg/ml). […] Alternatively, after 48 h, infected DC were harvested and analyzed for phenotype and for production of IL-12p70 using the ELISA kit (BD-PharMingen, San Diego, Calif.), with a lower level of detection of 62.5 pg/ml. […]

GL261 gliomas = test: Intracranial GL261 glioma survival, i.t. transduced DC plus i.p. RG-115830; assay type: in vivo, mice; conditions: at 50 days; DC expressing IFN-alpha and IL-12 under RTS, RG-115830 intra-peritoneal
Source text: Abbreviations in this figure are as follows: Ad-IFNa is Adenoviral vector constitutively expressing IFN-alpha; Ad-RTS-IFNa is Adenoviral vector encoding IFN-alpha under RTS control; Ad-RTS-IFNa no ligand is Adenoviral vector containing RTS and IFN-alpha where no activator ligand was present; Ad-IFNa/IL-12 corresponds to DC transduced with Adenoviral vectors encoding IFN-alpha and IL-12; and Ad-RTS-IFNa/IL-12 corresponds to DC transduced with two Adenoviral vectors encoding IFN-alpha and IL-12 under RTS control.
In this example, dendritic cells were isolated from bone marrow, transduced with the Adenoviral constructs depicted in FIG. 7, and mice bearing syngeneic intracranial GL261 gliomas were intratumorally injected with engineered dendritic cells; and RG-115830 was injected intra-peritoneal. […] The data reveal that ligand induced expression of IFN-alpha and IL-12 through activation of the RTS with RG-115830 ligand promoted 75 percent survival at 50 days of GL261 glioma mice; as compared to IFN-alpha expression alone. Furthermore, the control provided by the RheoSwitch and ligand promoted enhanced survival.

B16 melanoma [2] = test: Established s.c. B16 melanoma, i.t. DC plus i.p. RG-115830; assay type: in vivo, C57BL/6 mice; conditions: RG-115830 alone, or DC.RheoIL12 in the absence of RG-115830
Procedure: B6 mice received subcutaneous injection of 1×10^5 B16 melanoma cells in the right flank on day 0. On day 7, tumors reached a size of approximately 20-30 mm^2 and mice were treated with i.t. injections of PBS or 1×10^6 control vs. adenoviral transduced (MOI=100) DC in a total volume of 50 μl of PBS. Mice also received i.p. injections of 200 μg RG-115830 (in 50 μl DMSO) vs. DMSO carrier control that were initiated at 0 h, 24 h or 48 h post-DC administration, as indicated. After initiation, mice received a total of 5 consecutive daily intraperitoneal injections of RG-115830 at this dose. In additional experiments, ligand was administered beginning on the day of DC injection and then terminated 1, 3 or 5 days post-DC injection to discern whether early cessation of IL-12p70 transgene promotion reduced the therapeutic benefits of this approach. In all cases, tumor size was assessed every 3 or 4 days and recorded in mm^2 by determining the product of the largest perpendicular diameters measured by vernier calipers. Data are reported as the average tumor area±SD. All animal cohorts contained 5 mice/group.
B16 melanoma cells (1×10^5) were injected s.c. in the […] flank of syngenic H-2^b B6 mice and allowed to establish. On day 7, mice were randomized into cohorts of 5 animals each, with a mean cohort tumor size of approximately 20-30 mm^2. […]

B16 melanoma [3] = test: DC dose and duration of ligand administration in B16 melanoma; assay type: in vivo, B6 mice
Procedure: Tumor bearing mice were given a single intratumoral injection of AdDCs at doses of 10^5, 10^6, and 10^7 cells and daily i.p. injection of Activating Ligand at a single dose of 30 mg/kg/day for 6 days or 13 days beginning on the day of the injection of 10^7 cells. […] There was no effect of the Activating Ligand alone (without AdDCs) on tumor growth.
In a similar experiment to FIG. 12, the Activating Ligand was administered by oral gavage for 9 and 12 days. The anti-tumor dose response with an oral formulation of the Activating Ligand at different doses in Labrasol was assessed.
B16 melanomas were established s.c. for 7 days in the right flanks of 5 syngeneic B6 mice. On day 7, DC.SP1-IL-12 (bone marrow derived DC infected at an MOI of 100 using the SP1 optimal switch) were injected intratumorally (i.t.) at doses of 10E5, 10E6 or 10E7. RG-115932 was provided by i.p. injection beginning on the day of DC injection (and daily thereafter for either 6 days or 13 days). Each cohort contained 5 animals, with tumor growth monitored every 3-4 days and reported as mean size (mm squared based on the product of orthogonal measurements). Individual animal weights were also assessed at the time of tumor measurements (FIG. 13). All animals rendered free of disease by any therapy were rechallenged on day 50 (post-initial B16 tumor inoculation) with 10E5 B16 melanoma cells on the opposite flank (left flank) of the original tumor and with 10E5 MC38 colon carcinoma cells on the right flank. Tumor growth was monitored every 3-4 days and compared against growth observed in naïve (untreated) animals (see FIG. 12).

B16 melanomas = test: Ligand route/dose comparison with i.t. DC.SP1-IL12 in B16 melanoma; assay type: in vivo, B6 mice
Procedure: B16 melanomas were established s.c. for 7 days in the right flanks of syngenic B6 mice. On day 7, 10^6 DC.SP1-IL12 (optimal switch identified in FIG. 10 comparison) were injected intratumorally (i.t.). Activating ligand (RG-115932) was provided either as an injection i.p., via oral gavage in Labrasol, or via drug-containing chow provided ad libitum beginning on the day preceding DC injection (and daily thereafter for 6 days). Each cohort contained 5 animals, with tumor growth monitored every 3-4 days and reported as mean size (mm^2 based on the product of orthogonal measurements). The treatment for each cohort is described below.

[4] = tested on: mouse dendritic cells transduced with Ad-RTS-mIL-12; test: Activator Drug dose-dependent IL-12 expression in mouse DC transduced with Ad-RTS-mIL-12; assay type: cell-based; conditions: varying doses of Activator Drug
RTS = test: Activation of the RTS by ligand enantiomer; conditions: R enantiomer versus racemic mixture
Procedure: DC-SP1 i.t. therapy using i.p. administered ligand yielded a clear ligand dose-tumor inhibition response pattern, with optimal anti-tumor effects at ligand doses >30 mg/kg/day. […] 20-22.5 mg/kg/day of the active enantiomer. […] The availability of oral administration of the ligand would ease the burden of the treatment on patients.
The recombinant DNA used as the recombinant adenoviral vector allows the expression of human IL-12 under the control of the RheoSwitch® Therapeutic System (RTS). The RTS comprises a bicistronic message expressed from the human Ubiquitin C promoter and codes for two fusion proteins: Gal4-EcR and VP16-RXR. Gal4-EcR is a fusion between the DNA binding domain (amino acids 1-147) of yeast Gal4 and the DEF domains of the ecdysone receptor from the insect Choristoneura fumiferana. […] VP16-RXR is a fusion between the transcription activation domain of HSV-VP16 and the EF domains of a chimeric RXR derived from human and locust sequences. […]

[5] = tested on: human dendritic cells transduced with adenoviral vector Ad-RTS-mIL-12; test: IL-12 production by human DC transduced with Ad-RTS-mIL-12; assay type: cell-based; conditions: 3 hour viral adsorption at MOI of 500
Source text: The activator drug (“AD” or “activating ligand”) induced IL-12 expression in these transduced human dendritic cells.

[6] = tested on: human and mouse cell lines and primary dendritic cells transduced with recombinant adenoviral vector carrying the genes for IL12; test: IL12 induction in cell lines and primary DC transduced with IL12 adenoviral vector; assay type: cell-based; conditions: in vitro

SMILES	RG-115830 concentration for optimal infected DC production of IL-12p70 ([1]; MOI of 100) [µg/mL]	IL-12p70 production after delayed provision of RG-115830 ([1]; delayed for up to 48 h compared to 0 h timepoint)	survival (GL261 gliomas) [%]	therapeutic benefit (B16 melanoma [2])	tumor regression (B16 melanoma [3]; 13 days in a row with 10^7 dendritic cells)	suppression of tumor growth, 13 days instead of 6 days of ligand (B16 melanoma [3]; i.p. 30 mg/kg/day with AdDCs)	anti-tumor dose response, oral ligand (B16 melanoma [3]; oral gavage in Labrasol for 9 and 12 days)	oral dose with the greatest responses (B16 melanoma [3]; orally for 12 days, Labrasol) [mg/kg/day]	tumor growth, ligand alone (B16 melanoma [3]; without AdDCs)	efficacy by route of ligand administration (B16 melanomas; DC-SP1 i.t. therapy, ligand 30 mg/kg/day)	ligand dose giving optimal anti-tumor effects (B16 melanomas; DC-SP1 i.t. therapy, ligand i.p.) [mg/kg/day]	efficacy by route in mouse melanoma model (B16 melanomas; DCs transduced with murine IL-12 under RTS)	B16 tumor growth, ligand alone (B16 melanomas; no DC, any dose or any route)	IL-12 production [4]	activation of the RTS (RTS)	IL-12 expression [5]	IL12 expression [6]
CCCC(N(NC(=O)c1cccc(OC)c1CC)C(=O)c1cc(C)cc(C)c1)C(C)(C)C (centres unmarked) [RG-115830, 3,5-Dimethyl-benzoic acid N-(1-tert-butyl-butyl)-N′-(2-ethyl-3-methoxy-benzoyl)-hydrazide]	50 to 200	did not result in any significantly reduced production of IL-12p70	75	failed to yield any therapeutic benefit													
CCC[C@@H](N(NC(=O)c1cccc(OC)c1CC)C(=O)c1cc(C)cc(C)c1)C(C)(C)C [RG-115932, (R)-3,5-Dimethyl-benzoic acid N-(1-tert-butyl-butyl)-N′-(2-ethyl-3-methoxy-benzoyl)-hydrazide]					effective in causing tumor regression over a 25 day period	significantly more robust suppression of tumor growth	dose dependent anti-tumor effect	50	no effect	equally effective if ligand is administered by i.p. injection, oral gavage, or diet admix	> 30	effective in intraperitoneal and oral routes	had no impact on B16 tumor growth	produced IL-12 in a dose dependent manner	capable of activating the RTS	induced IL-12 expression in these transduced human DCs	induction of IL12 expression in response to the activator drug in a dose dependent way
